Experimental data as given in patent US20180353460A1, “METHODS OF TREATING UROLOGICAL DISORDERS USING SARMs” (priority 2014, published 2018).
Several values for one entry are separate records, joined by “and”; a condition that tells them apart may be missing. Identical values can stand only once.

Tested on: prostate, seminal vesicles and levator ani muscle
Assay: Androgenic and anabolic activity in castrated (ORX) male rats, daily oral gavage for fourteen days
Format: in vivo, rat
Settings: for ED50 in levator ani / ED50 in prostate / ED50 in seminal vesicles / Emax in levator ani / Emax in prostate / Emax in seminal vesicles: ORX rats, nonlinear regression; for dose that fully maintained or restored levator ani muscle weight (100% of intact) / levator ani muscle weight / prostate weight / seminal vesicle weight: castrated (ORX) rats; for levator ani muscle weight / prostate weight / seminal vesicle weight: oral gavage 14 days
Description: Male Sprague-Dawley rats weighing approximately 200 g were purchased from Harlan Bioproducts for Science (Indianapolis, Ind.). […] The anabolic and androgenic activity of compound of Formula VIII in intact animals was tested, as well as a dose response evaluation in acutely orchidectomized (ORX) animals. Regenerative effects of the compound of Formula VIII in chronically (9 days) ORX rats was similarly evaluated.
The test article for this study was weighed and dissolved in 10% DMSO (Fisher) diluted with PEG 300 (Acros Organics, NJ) for preparation of the appropriate dosage concentrations. […] Animals were randomly assigned to one of seven groups consisting of 4 to 5 animals per group. Control groups (intact and ORX) were administered vehicle daily. Compound of Formula VIII was administered via oral gavage at doses of 0.01, 0.03, 0.1, 0.3, 0.75, and 1 mg/day to both intact and ORX groups. Where appropriate, animals were castrated on day one of the study. Treatment with compound of Formula VIII began nine days post ORX and was administered daily via oral gavage for fourteen days.
(§1) In addition, ventral prostate, seminal vesicles, and levator ani muscle were removed, individually weighed, normalized to body weight, and expressed as a percentage of intact control. Student's T-test was used to compare individual dose groups to the intact control group. Significance was defined a priori as a P-value <0.05. Ventral prostate and seminal vesicle weights were evaluated as a measure of androgenic activity, whereas levator ani muscle weight was evaluated as a measure of anabolic activity. Blood was collected from the abdominal aorta, centrifuged, and sera were frozen at −80° C. prior to determination of serum hormone levels. Serum luteinizing hormone (LH) and follicle stimulating hormone (FSH) concentrations were determined.
Male Sprague-Dawley rats weighing approximately 200 g were purchased from Harlan Bioproducts for Science (Indianapolis, Ind.). […] Anabolic and androgenic activity of compound of Formula IX in intact animals was evaluated, and the dose response in acutely orchidectomized (ORX) animals was evaluated as well. Regenerative effects of compound of Formula IX in chronically (9 days) ORX rats were also assessed.
The compound was weighed and dissolved in 10% DMSO (Fisher) diluted with PEG 300 (Acros Organics, NJ) for preparation of the appropriate dosage concentrations. […] Intact and ORX animals were randomly assigned to one of seven groups consisting of 4 to 5 animals per group. Control groups (intact and ORX) were administered vehicle daily. Compound of Formula IX was administered via oral gavage at doses of 0.01, 0.03, 0.1, 0.3, 0.75, and 1 mg/day to both intact and ORX groups.
as §1, with “Castrated animals (on day one of the study) were randomly assigned to dose groups (4-5 animals/group) of 0.01, 0.03, 0.1, 0.3, 0.75, and 1 mg/day, for dose-response evaluation. Dosing began nine days post ORX and was administered daily via oral gavage for fourteen days. […] In” for “In”, “As a measure of androgenic activity, ventral” for “Ventral”, “evaluated,” for “evaluated as a measure of androgenic activity,”, “lutenizing” for “luteinizing”
Male Sprague-Dawley rats weighing approximately 200 g were purchased from Harlan Bioproducts for Science (Indianapolis, Ind.).

Row | SMILES | ED50 in levator ani | ED50 in prostate | levator ani muscle weight (0.01 mg/day) | prostate weight (0.01 mg/day) | seminal vesicle weight (0.01 mg/day) | levator ani muscle weight (0.03 mg/day) | prostate weight (0.03 mg/day) | seminal vesicle weight (0.03 mg/day) | levator ani muscle weight (0.1 mg/day) | prostate weight (0.1 mg/day) | seminal vesicle weight (0.1 mg/day) | levator ani muscle weight (0.3 mg/day) | prostate weight (0.3 mg/day) | seminal vesicle weight (0.3 mg/day) | levator ani muscle weight (0.75 mg/day) | prostate weight (0.75 mg/day) | seminal vesicle weight (0.75 mg/day) | levator ani muscle weight (1 mg/day) | prostate weight (1 mg/day) | seminal vesicle weight (1 mg/day) | also measured
1 | C[C@](O)(COc1ccc(C#N)cc1)C(=O)Nc1ccc(C#N)c(C(F)(F)F)c1 [Compound IX, (S)—N-(4-Cyano-3-(trifluoromethyl)phenyl)-3-(4-cyanophenoxy)-2-hydroxy-2-methylpropanamide] | 0.02 ± 0.01 mg/day | 0.09 ± 0.07 mg/day | 59%±6% | 8%±2% | 12%±4% | 85%±9% | 20%±5% | 17%±5% | 112%±10% | 51%±19% | 35%±10% | 122%±16% | 56%±9% | 61%±15% | 127±12% | 80%±28% | 70%±14% | 129.66±2% | 74±12.5% | 80%±6% | ED50 in seminal vesicles: 0.17 ± 0.05 mg/day; Emax in levator ani: 131%±2%; Emax in prostate: 83%±25%; Emax in seminal vesicles: 85%±11%; dose that fully maintained or restored levator ani muscle weight (100% of intact) (oral gavage): > 0.1 mg/day
2 | C[C@](O)(COc1ccc(C#N)cc1)C(=O)Nc1ccc(C#N)c(Cl)c1 [VIII, (S)—N-(3-Chloro-4-cyanophenyl)-3-(4-cyanophenoxy)-2-hydroxy-2-methylpropanamide] | – | – | 52%±8% | 17%±6% | 10%±3% | 67%±9% | 31%±3% | 13%±4% | 98%±10% | 43%±15% and 43±15% | 21%±6% | 103%±12% | 54%±17% | 43%±8% | 105%±12% | 58%±10% | 51%±9% | 110%±17% and 110±17% | 73%±12% and 73±12% | 69%±14% | anabolic ratio muscle/prostate weight (castrated rats, 0.01 mg/day): 3.02; anabolic ratio muscle/prostate weight (castrated rats, 0.03 mg/day): 2.13; anabolic ratio muscle/prostate weight (castrated rats, 0.1 mg/day): 2.27; anabolic ratio muscle/prostate weight (castrated rats, 0.3 mg/day): 1.90; anabolic ratio muscle/prostate weight (castrated rats, 0.75 mg/day): 1.83; anabolic ratio muscle/prostate weight (castrated rats, 1 mg/day): 1.51; derived dose that would restore levator ani muscle weight to 100% (castrated rats, oral gavage): 0.1 mg/day
3 | C[C@](O)(COc1ccc(C#N)c(F)c1)C(=O)Nc1ccc(C#N)c(C(F)(F)F)c1 [XIII, (S)—N-(4-cyano-3-(trifluoromethyl)phenyl)-3-(4-cyano-3-fluorophenoxy)-2-hydroxy-2-methylpropanamide] | 0.03 ± 0.01 mg/day | 0.21 ± 0.04 mg/day | 71%±4% | 24%±4% | 15%±2% | 101%±15% | 37%±9% | 25%±9% | 125%±20% | 50%±11% | 67%±20% | 126%±14% | 88%±16% | 113%±6% | 151±9% | 132%±16% | 155%±16% | 143±17% | 118±12% | 160%±7% | ED50 in seminal vesicles: 0.2 ± 0.04 mg/day; Emax in levator ani: 147%±10%; Emax in prostate: 147%±10%; Emax in seminal vesicles: 188%±135%; dose that fully maintained or restored levator ani muscle weight (100% of intact) (oral gavage): 0.03 mg/day
